BigSolDB 2.1

CC(C)(C)NC[C@H](O)COc1nsnc1N1CCOCC1.O=C(O)/C=C\C(=O)O
Conditions	solubility (mole fraction)
in 2-methyltetrahydrofuran, 293.2 K	0.0001
in 2-methyltetrahydrofuran, 303.2 K	0.00017
in 2-methyltetrahydrofuran, 313.2 K	0.00038
in 2-methyltetrahydrofuran, 323.2 K	0.00067
in 2-methyltetrahydrofuran, 333.2 K	0.0013
in acetone, 281.1 K	0.00048
in acetone, 288.3 K	0.00056
in acetone, 292.8 K	0.00065
in acetone, 301.9 K	0.00089
in acetone, 313.3 K	0.00121
in acetone, 323.1 K	0.00166
in cyrene, 284 K	0.00047
in cyrene, 286.1 K	0.00054
in cyrene, 289.8 K	0.00075
in cyrene, 292.4 K	0.001
in cyrene, 301.1 K	0.00146
in cyrene, 312.2 K	0.0023
in cyrene, 323.7 K	0.00379
in cyrene, 332 K	0.0055
in dimethyl isosorbide, 282.6 K	0.00022
in dimethyl isosorbide, 289.1 K	0.00034
in dimethyl isosorbide, 297.5 K	0.00052
in dimethyl isosorbide, 309.7 K	0.00072
in dimethyl isosorbide, 325.9 K	0.00117
in dimethyl isosorbide, 330.9 K	0.00151
in ethanol, 280.1 K	0.00105
in ethanol, 285 K	0.0012
in ethanol, 290.8 K	0.00145
in ethanol, 302.3 K	0.00217
in ethanol, 312.8 K	0.00319
in ethanol, 322.7 K	0.00471
in ethanol, 329.8 K	0.00648
in isopropanol, 279.5 K	0.00013
in isopropanol, 282.9 K	0.00014
in isopropanol, 290.9 K	0.00018
in isopropanol, 293.6 K	0.00025
in isopropanol, 298.8 K	0.00037
in isopropanol, 313.7 K	0.0006
in isopropanol, 321.7 K	0.00097
in isopropanol, 330.1 K	0.00143
in n-butanol, 278.3 K	0.00028
in n-butanol, 281.7 K	0.00034
in n-butanol, 284.8 K	0.00038
in n-butanol, 289.6 K	0.00049
in n-butanol, 303.2 K	0.00075
in n-butanol, 305.1 K	0.00087
in n-butanol, 309.1 K	0.00102
in n-butanol, 316.3 K	0.00144
in n-butanol, 321.4 K	0.00178
in n-butanol, 328.7 K	0.00251
in water, 286 K	0.00245
in water, 293.1 K	0.00277
in water, 300.5 K	0.00319
in water, 305 K	0.00352
in water, 313.9 K	0.00449
in water, 320.8 K	0.00572
in water, 325.8 K	0.00694
in water, 327.2 K	0.0074
